Measurements taken from ChEMBL document CHEMBL2073825, “Ex vivo reversal of chemoresistance by tariquidar (XR9576)” (Anticancer Drugs, 2004).

Molecular target: ATP-dependent translocase ABCB1 (Homo sapiens, UniProt P08183)
Assay: TP_TRANSPORTER: Vinorelbine-induced cytotoxicity in P-gp positive tumor
Format: functional, tissue-based, Neoplasm

Sequence of ATP-dependent translocase ABCB1 (P08183 whole entry): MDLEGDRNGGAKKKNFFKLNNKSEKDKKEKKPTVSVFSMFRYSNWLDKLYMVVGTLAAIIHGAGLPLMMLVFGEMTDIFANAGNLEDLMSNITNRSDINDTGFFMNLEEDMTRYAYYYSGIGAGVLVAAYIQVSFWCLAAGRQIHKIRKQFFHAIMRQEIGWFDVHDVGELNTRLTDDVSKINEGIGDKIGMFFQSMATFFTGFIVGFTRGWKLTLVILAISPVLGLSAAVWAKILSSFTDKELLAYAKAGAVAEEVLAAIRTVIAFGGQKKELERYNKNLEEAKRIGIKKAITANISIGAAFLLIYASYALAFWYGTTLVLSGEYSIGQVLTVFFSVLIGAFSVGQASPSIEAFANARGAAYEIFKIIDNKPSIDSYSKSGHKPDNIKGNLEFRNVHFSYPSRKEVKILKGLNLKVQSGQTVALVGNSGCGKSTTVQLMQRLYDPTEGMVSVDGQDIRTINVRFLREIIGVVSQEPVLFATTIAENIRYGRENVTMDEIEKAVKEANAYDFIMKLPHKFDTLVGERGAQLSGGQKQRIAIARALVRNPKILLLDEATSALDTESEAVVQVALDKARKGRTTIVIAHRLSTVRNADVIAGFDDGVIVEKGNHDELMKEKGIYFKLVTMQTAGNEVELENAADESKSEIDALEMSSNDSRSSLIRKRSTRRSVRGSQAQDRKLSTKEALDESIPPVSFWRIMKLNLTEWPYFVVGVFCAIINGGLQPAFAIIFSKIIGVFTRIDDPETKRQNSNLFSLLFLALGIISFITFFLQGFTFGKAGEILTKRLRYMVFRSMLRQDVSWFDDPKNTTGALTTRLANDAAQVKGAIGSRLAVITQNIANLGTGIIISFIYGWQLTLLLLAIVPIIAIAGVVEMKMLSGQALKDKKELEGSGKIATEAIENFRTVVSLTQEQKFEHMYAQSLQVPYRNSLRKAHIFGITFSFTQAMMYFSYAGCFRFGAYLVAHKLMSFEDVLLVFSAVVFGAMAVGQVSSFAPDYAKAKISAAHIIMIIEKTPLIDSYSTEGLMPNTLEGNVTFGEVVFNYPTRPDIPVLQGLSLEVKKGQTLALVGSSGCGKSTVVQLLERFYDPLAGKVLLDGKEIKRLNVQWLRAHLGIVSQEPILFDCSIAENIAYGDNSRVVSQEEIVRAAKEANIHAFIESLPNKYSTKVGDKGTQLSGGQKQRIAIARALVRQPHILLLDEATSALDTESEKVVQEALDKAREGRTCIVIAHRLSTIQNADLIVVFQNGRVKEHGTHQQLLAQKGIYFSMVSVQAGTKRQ

`COc1cc2c(cc1OC)CN(CCc1ccc(NC(=O)c3cc(OC)c(OC)cc3NC(=O)c3cnc4ccccc4c3)cc1)CC2` [TARIQUIDAR] was tested, and the Activity was “inhibitor [+]”.
